Test results: US9943519B2, “Pharmaceutical compounds” (F.HOFFMANN-LA ROCHE AG, priority 2006, dated 2018)

What was measured:
[1] = molecular target: human PI3K isoform beta (p110 beta) (Homo sapiens, UniProt P42338); assay: p110 isoform selectivity scintillation proximity assay (beta); type: biochemical; conditions: ratio of IC50 values, SPA, purified human PI3K isoforms
Protocol: (§1) Binding of compounds of the invention from above Tables 1a and 1b to purified preparations of p110 isoforms alpha, beta, delta, and gamma was measured by a Scintillation Proximity Assay (SPA) to determine binding activity (IC50 μMol) and selectivity of binding of beta, delta, and gamma isoforms relative to alpha (Example 8). These values are expressed in Table 2.
(§2) The ability of representative compounds from Tables 1a and 1b to inhibit the lipid kinase activity of purified preparations of human PI3K isoforms alpha, beta, delta, and gamma was determined by a radiometric scintillation proximity assay (SPA, GE Healthcare, Amersham Biosciences). Concentration dependent inhibition at 50% (IC50 μMol) was determined for all four isoforms […] and fold potency over beta, delta, and gamma relative to alpha was calculated for a selection of compounds in Table 2. Each compound has a p110 alpha IC50<1 μMol.

[2] = molecular target: human PI3K isoform delta (p110 delta) (Homo sapiens, UniProt O00329); assay: p110 isoform selectivity scintillation proximity assay (delta); type: biochemical; conditions: ratio of IC50 values, SPA, purified human PI3K isoforms
Protocol: as §1, §2

[3] = molecular target: human PI3K isoform gamma (p110 gamma) (Homo sapiens, UniProt P48736); assay: p110 isoform selectivity scintillation proximity assay (gamma); type: biochemical; conditions: ratio of IC50 values, SPA, purified human PI3K isoforms
Protocol: as §1, §2

Caco-2 cells = assay: Caco-2 permeability; type: in vitro ADME; conditions: bidirectional Caco-2 assay
Protocol: Caco-2 cells were seeded onto Millipore Multiscreen plates at 1×10^5 cells/cm^2, and were cultured for 20 days. Assessment of compound permeability was subsequently conducted. The compounds were applied to the apical surface (A) of cell monolayers and compound permeation into the basolateral (B) compartment was measured. This was performed in the reverse direction (B−A) to investigate active transport. A permeability coefficient value, Papp, for each compound, a measure of the rate of permeation of the compound across the membrane, was calculated. Compounds were grouped into low (Papp</=[…]) or high (Papp>/=[…]) absorption potential based on comparison with control compounds with established human absorption.
For assessment of a compound's ability to undergo active efflux, the ratio of basolateral (B) to apical (A) transport compared with A to B was determined. Values of B−A/A−B>/=1.0 indicated the occurrence of active cellular efflux. All of the compounds tested through the Caco-2 permeability screen had Papp values >/=[…].

Sequence of human PI3K isoform beta (p110 beta) (P42338 whole entry, canonical isoform): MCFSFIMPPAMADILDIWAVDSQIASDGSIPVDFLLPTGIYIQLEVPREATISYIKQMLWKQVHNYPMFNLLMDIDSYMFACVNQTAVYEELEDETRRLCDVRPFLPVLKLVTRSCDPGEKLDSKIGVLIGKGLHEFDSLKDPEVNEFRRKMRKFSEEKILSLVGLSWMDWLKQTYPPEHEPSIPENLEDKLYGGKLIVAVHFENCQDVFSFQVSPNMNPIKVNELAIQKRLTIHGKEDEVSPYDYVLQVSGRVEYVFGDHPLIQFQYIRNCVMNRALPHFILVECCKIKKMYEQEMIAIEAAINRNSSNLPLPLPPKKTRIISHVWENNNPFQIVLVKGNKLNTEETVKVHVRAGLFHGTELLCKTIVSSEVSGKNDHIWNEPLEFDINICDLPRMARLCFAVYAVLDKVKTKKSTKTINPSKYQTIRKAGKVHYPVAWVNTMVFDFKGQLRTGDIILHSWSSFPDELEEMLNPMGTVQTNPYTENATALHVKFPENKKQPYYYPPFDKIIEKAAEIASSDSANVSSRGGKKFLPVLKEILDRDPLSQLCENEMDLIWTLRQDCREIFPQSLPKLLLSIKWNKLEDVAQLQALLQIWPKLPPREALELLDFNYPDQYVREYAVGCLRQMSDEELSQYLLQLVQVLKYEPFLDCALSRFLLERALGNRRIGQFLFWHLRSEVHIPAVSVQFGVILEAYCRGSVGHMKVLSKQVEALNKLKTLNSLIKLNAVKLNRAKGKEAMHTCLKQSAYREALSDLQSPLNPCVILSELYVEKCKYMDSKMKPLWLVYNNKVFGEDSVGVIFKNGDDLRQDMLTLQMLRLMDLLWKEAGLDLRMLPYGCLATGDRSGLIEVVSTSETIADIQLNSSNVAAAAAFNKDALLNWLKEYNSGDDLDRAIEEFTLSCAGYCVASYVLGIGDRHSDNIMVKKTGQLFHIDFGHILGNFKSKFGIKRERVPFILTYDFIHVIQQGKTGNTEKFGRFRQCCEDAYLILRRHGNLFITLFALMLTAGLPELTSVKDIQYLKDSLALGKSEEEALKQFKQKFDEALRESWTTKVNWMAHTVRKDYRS
Sequence of human PI3K isoform beta (p110 beta) (P27986 whole entry partner, canonical isoform): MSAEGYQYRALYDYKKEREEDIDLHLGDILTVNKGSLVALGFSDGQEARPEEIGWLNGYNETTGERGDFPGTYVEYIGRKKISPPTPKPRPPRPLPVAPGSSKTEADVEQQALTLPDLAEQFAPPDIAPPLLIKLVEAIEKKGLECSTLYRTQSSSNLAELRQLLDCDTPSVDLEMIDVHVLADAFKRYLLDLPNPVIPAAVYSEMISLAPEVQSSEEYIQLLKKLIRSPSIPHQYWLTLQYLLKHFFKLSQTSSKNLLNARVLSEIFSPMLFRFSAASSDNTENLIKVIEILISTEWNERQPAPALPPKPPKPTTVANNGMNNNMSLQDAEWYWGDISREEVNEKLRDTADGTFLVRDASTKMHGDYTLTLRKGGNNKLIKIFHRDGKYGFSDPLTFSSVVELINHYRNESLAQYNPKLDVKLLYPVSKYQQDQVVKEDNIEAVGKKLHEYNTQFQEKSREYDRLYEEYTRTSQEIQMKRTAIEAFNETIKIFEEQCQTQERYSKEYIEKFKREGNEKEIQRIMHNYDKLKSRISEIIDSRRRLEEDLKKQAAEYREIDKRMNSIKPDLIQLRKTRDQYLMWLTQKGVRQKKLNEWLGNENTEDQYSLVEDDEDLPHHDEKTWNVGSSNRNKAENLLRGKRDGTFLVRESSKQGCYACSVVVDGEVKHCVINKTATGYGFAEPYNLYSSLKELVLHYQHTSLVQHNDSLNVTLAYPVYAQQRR
Sequence of human PI3K isoform delta (p110 delta) (O00329 whole entry, canonical isoform): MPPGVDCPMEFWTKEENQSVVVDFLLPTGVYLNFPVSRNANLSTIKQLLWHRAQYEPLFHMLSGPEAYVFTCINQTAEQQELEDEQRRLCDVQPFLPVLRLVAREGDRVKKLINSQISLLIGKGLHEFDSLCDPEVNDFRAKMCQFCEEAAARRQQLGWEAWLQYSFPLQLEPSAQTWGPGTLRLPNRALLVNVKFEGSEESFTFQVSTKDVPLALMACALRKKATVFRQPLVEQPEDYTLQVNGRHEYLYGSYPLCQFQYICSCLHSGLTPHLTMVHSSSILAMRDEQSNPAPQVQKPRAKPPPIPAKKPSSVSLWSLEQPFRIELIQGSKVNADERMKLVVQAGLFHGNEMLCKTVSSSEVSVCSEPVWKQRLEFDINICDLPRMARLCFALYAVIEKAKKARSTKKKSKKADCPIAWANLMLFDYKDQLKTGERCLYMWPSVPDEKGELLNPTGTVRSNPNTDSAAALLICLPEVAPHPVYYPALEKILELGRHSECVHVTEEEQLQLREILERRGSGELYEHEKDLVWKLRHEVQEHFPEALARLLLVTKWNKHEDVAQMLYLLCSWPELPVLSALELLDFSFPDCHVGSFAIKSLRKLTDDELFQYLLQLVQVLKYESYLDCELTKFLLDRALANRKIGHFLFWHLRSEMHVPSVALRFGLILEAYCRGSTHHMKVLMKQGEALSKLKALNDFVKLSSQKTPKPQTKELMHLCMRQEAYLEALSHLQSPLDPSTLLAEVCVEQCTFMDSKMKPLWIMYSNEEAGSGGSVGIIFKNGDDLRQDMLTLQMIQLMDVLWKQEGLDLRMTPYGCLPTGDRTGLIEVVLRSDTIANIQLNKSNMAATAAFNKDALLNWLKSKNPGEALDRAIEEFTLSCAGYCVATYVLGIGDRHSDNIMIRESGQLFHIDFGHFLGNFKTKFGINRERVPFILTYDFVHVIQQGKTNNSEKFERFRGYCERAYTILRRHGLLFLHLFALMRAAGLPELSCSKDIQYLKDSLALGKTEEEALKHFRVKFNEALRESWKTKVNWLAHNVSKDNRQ
Sequence of human PI3K isoform delta (p110 delta) (P27986 whole entry partner, canonical isoform): as the sequence (P27986 whole entry partner, canonical isoform) above
Sequence of human PI3K isoform gamma (p110 gamma) (P48736 whole entry, canonical isoform): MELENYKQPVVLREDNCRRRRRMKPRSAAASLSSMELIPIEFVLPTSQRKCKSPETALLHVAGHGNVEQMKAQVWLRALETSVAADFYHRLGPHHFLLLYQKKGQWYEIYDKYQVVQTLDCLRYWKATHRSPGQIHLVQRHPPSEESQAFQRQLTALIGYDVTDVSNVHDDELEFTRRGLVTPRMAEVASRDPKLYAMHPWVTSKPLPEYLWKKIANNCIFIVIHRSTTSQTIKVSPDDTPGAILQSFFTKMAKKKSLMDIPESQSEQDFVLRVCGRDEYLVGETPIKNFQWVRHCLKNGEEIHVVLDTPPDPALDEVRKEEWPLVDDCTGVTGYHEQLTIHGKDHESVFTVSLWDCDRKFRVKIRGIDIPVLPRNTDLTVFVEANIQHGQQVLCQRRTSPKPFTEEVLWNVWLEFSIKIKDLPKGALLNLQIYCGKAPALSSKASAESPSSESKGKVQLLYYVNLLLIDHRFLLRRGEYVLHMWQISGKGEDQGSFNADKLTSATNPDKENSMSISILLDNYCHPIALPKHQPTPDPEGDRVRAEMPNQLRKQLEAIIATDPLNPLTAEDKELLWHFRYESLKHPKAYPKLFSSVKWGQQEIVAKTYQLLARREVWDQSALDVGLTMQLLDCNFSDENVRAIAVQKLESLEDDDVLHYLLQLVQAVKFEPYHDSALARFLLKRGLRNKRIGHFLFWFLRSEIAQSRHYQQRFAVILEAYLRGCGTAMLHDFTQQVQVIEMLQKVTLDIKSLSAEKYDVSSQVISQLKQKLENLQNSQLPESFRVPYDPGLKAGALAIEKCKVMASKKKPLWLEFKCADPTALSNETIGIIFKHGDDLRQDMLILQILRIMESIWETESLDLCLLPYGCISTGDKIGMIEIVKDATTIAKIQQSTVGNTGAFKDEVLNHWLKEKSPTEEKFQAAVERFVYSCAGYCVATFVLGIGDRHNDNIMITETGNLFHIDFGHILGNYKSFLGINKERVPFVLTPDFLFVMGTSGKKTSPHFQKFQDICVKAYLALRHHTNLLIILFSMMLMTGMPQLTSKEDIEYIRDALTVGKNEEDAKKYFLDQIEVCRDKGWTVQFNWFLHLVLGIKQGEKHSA

alpha/beta (fold potency over beta relative to alpha) [1] [fold] | alpha/delta (fold potency over delta relative to alpha) [2] [fold] | alpha/gamma (fold potency over gamma relative to alpha) [3] [fold] | B−A/A−B asymmetry index (Caco-2 cells) | SMILES
>10 | >10 | >10 |  | CS(=O)(=O)N1CCN(Cc2cc3c(N4CCOCC4)nc(-c4cnc5ccccc5c4)nc3s2)CC1 [Compound 95, 3-[6-(4-Methanesulfonyl-piperazin-1-ylmethyl)-4-morpholin-4-yl-thieno[2,3-d]pyrimidin-2-yl]-quinoline]
>10 | <10 | >10 |  | CS(=O)(=O)N1CCN(Cc2cc3nc(-c4cnc5[nH]ccc5c4)nc(N4CCOCC4)c3s2)CC1 [Compound 133, 6-((4-methylsulfonylpiperazin-1-yl)methyl)-4-morpholino-2-(1H-pyrrolo[2,3-b]pyridin-5-yl)thieno[3,2-d]pyrimidine]
<10 | <10 | <10 |  | CS(=O)(=O)N1CCN(Cc2cc3nc(-c4cccc5[nH]cnc45)nc(N4CCOCC4)c3s2)CC1 [Compound 139]
>10 | >10 | >10 |  | CS(=O)(=O)N1CCN(Cc2cc3c(N4CCOCC4)nc(-c4cnc5[nH]ccc5c4)nc3s2)CC1 [Compound 140]
<10 | <10 | >10 |  | CS(=O)(=O)N1CCN(Cc2cc3c(N4CCOCC4)nc(-c4cccc5[nH]ncc45)nc3o2)CC1 [Compound 141, 2-(1H-indazol-4-yl)-6-((4-methylsulfonylpiperazin-1-yl)methyl)-4-morpholinofuro[2,3-d]pyrimidine]
>10 | <10 | >10 |  | CS(=O)(=O)N1CCN(Cc2cc3nc(-c4cnc5[nH]ccc5c4)nc(N4CCOCC4)c3o2)CC1 [Compound 142]
>10 | >10 | >10 |  | CS(=O)(=O)N1CCN(Cc2cc3c(N4CCOCC4)nc(-c4cnc5[nH]cnc5c4)nc3s2)CC1 [Compound 147]
>10 | <10 | >10 |  | Cc1nc2cc(-c3nc(N4CCOCC4)c4sc(CN5CCN(S(C)(=O)=O)CC5)cc4n3)ccc2[nH]1 [Compound 157, 6-(4-Methanesulfonyl-piperazin-1-ylmethyl)-2-(2-methyl-1H-benzoimidazol-5-yl)-4-morpholin-4-yl-thieno[3,2-d]pyrimidine]
 |  |  | less than 1.0 | CN1CCN(Cc2cc3nc(-c4cccc(O)c4)nc(N4CCOCC4)c3s2)CC1 [PI540]

SMILES | alpha/beta (fold potency over beta relative to alpha) [1] [fold] | alpha/delta (fold potency over delta relative to alpha) [2] [fold] | alpha/gamma (fold potency over gamma relative to alpha) [3] [fold] | B−A/A−B asymmetry index (Caco-2 cells)
CS(=O)(=O)N1CCN(Cc2cc3nc(-c4cnc5[nH]cnc5c4)nc(N4CCOCC4)c3s2)CC1 [Compound 144] | <10 | <10 | >10 | 
